Target: T1, human LPA1 (Homo sapiens, UniProt Q92633)
T1 construct: the full-length cDNA for human LPA1 was obtained by PCR of the reverse transcription reaction; expressed in transfected cells
Assay: LPA1 calcium flux assay
Format: cell-based
Details: CHO cells expressing human LPA1, stimulated with 10 nM LPA; read-out: HLPA1 Ca Flux IC50
Experimental: A 1.1 kb cDNA encoding the human LPA1 receptor was cloned from human lung. Human lung RNA (Clontech Laboratories, Inc. USA) was reverse transcribed using the RETROscript kit (Ambion, Inc.) and the full-length cDNA for human LPA1 was obtained by PCR of the reverse transcription reaction. The nucleotide sequence of the cloned human LPA1 was determined by sequencing and confirmed to be identical to the published human LPA1 sequence (An et al. Biochenm. Biophys. Res. Commun. 231:619 (1997). The cDNA was cloned into the pCDNA5/FRT expression plasmid and transfected in CHO cells using lipofectamine 2000 (Invitrogen Corp., USA). Clones stably expressing human LPA1 were selected using hygromycin and identified as cells that show Ca-influx in response to LPA.
Human LPA1 or LPA3 expressing CHO cells are seeded at 20,000-45,000 cells per well in a 96-well poly-D-lysine coated plate one or two days before the assay. Prior to the assay, the cells are washed once with PBS and then cultured in serum-free media overnight. On the day of the assay, a calcium indicator dye (Calcium 4, Molecular Devices) in assay buffer (HBSS with Ca^2+ and Mg^2+ and containing 20 mM Hepes and 0.3% fatty-acid free human serum albumin) is added to each well and incubation continued for 1 hour at 37° C. 10 μl of test compounds in 2.5% DMSO are added to the cells and incubation continued at room temperature for 30 minutes. Cells are the stimulated by the addition of 10 nM LPA and intracellular Ca^2+ measured using the Flexstation 3 (Molecular Devices). IC50s are determined using Graphpad prism analysis of drug titration curves.

T1 sequence (Q92633 whole entry): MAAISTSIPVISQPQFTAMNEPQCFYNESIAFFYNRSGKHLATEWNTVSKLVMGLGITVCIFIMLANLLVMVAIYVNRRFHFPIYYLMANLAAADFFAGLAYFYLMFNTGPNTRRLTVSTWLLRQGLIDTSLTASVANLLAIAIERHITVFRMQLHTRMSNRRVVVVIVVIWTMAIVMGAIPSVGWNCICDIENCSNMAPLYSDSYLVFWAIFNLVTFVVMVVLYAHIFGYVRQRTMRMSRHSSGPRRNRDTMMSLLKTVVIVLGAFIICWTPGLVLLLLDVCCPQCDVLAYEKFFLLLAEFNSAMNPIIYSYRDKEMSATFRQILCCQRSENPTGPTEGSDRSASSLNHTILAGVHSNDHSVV

SMILES	IC50
Cc1noc(-c2ccc(-c3ccc(C4(C(=O)O)CC4)cc3)cc2)c1CCOCC1CC1 [Compound 1-35, 1-{4′-[4-(2-Cyclopropylmethoxy-ethyl)-3-methyl-isoxazol-5-yl]-biphenyl-4-yl}-cyclopropanecarboxylic acid]	< 300 nM
Cc1noc(-c2ccc(-c3ccc(C4(C(=O)O)CC4)cc3)cc2)c1CCNC(=O)c1ccccc1 [Compound 1-36, 1-{4′-[4-(2-Benzoylamino-ethyl)-3-methyl-isoxazol-5-yl]-biphenyl-4-yl}-cyclopropanecarboxylic acid]	1000 to 50000 nM
Cc1noc(-c2ccc(-c3ccc(C4(C(=O)O)CC4)cc3)cc2)c1CCN(Cc1ccccc1)Cc1ccccc1 [Compound 1-37, 1-{4′-[4-(2-Dibenzylamino-ethyl)-3-methyl-isoxazol-5-yl]-biphenyl-4-yl}-cyclopropanecarboxylic acid]	1000 to 50000 nM
Cc1noc(-c2ccc(-c3ccc(C4(C(=O)O)CC4)cc3)cc2)c1C(=O)NCCc1ccccc1 [Compound 1-38, 1-[4′-(3-Methyl-4-phenethylcarbamoyl-isoxazol-5-yl)-biphenyl-4-yl]-cyclopropanecarboxylic acid]	1000 to 50000 nM
Cc1noc(-c2ccc(-c3ccc(C4(C(=O)O)CC4)cc3)cc2)c1CCC(=O)NC1CC1 [Compound 1-39, 1-{4′-[4-(2-Cyclopropylcarbamoyl-ethyl)-3-methyl-isoxazol-5-yl]-biphenyl-4-yl}-cyclopropanecarboxylic acid]	1000 to 50000 nM
Cc1noc(-c2ccc(-c3ccc(C4(C(=O)O)CC4)cc3)cc2)c1CCC(=O)NCC1CC1 [Compound 1-40, 1-(4′-{4-[2-(Cyclopropylmethyl-carbamoyl)-ethyl]-3-methyl-isoxazol-5-yl}-biphenyl-4-yl)-cyclopropanecarboxylic acid]	1000 to 50000 nM
Cc1noc(-c2ccc(-c3ccc(C4(C(=O)O)CC4)cc3)cc2)c1CCC(=O)N1CCCC1 [Compound 1-41, 1-{4′-[3-Methyl-4-(3-oxo-3-pyrrolidin-1-yl-propyl)-isoxazol-5-yl]-biphenyl-4-yl}-cyclopropanecarboxylic acid]	1000 to 50000 nM
Cc1noc(-c2ccc(-c3ccc(C4(C(=O)O)CC4)cc3)cc2)c1CCC(=O)NCc1ccccc1 [Compound 1-42, 1-{4′-[4-(2-Benzylcarbamoyl-ethyl)-3-methyl-isoxazol-5-yl]-biphenyl-4-yl}-cyclopropanecarboxylic acid]	1000 to 50000 nM
Cc1noc(-c2ccc(-c3ccc(C4(C(=O)O)CC4)cc3)cc2)c1CCC(=O)Nc1ccccc1 [Compound 1-43, 1-{4′-[3-Methyl-4-(2-phenylcarbamoyl-ethyl)-isoxazol-5-yl]-biphenyl-4-yl}-cyclopropanecarboxylic acid]	> 50000 nM
Cc1noc(-c2ccc(-c3ccc(C4(C(=O)O)CC4)cc3)cc2)c1CCC(=O)N(C)Cc1ccccc1F [Compound 1-44, 1-[4′-(4-{2-[(2-Fluoro-benzyl)-methyl-carbamoyl]-ethyl}-3-methyl-isoxazol-5-yl)-biphenyl-4-yl]-cyclopropanecarboxylic acid]	< 300 nM
Cc1noc(-c2ccc(-c3ccc(C4(C(=O)O)CC4)cc3)cc2)c1COCc1ccccc1 [Compound 1-45, 1-[4′-(4-Benzyloxymethyl-3-methyl-isoxazol-5-yl)-biphenyl-4-yl]-cyclopropanecarboxylic acid]	1000 to 50000 nM
Cc1noc(-c2ccc(-c3ccc(C4(C(=O)O)CC4)cc3)cc2)c1COCc1ccccc1Cl [Compound 1-46, 1-{4′-[4-(2-Chloro-benzyloxymethyl)-3-methyl-isoxazol-5-yl]-biphenyl-4-yl}-cyclopropanecarboxylic acid]	1000 to 50000 nM
Cc1noc(-c2ccc(-c3ccc(C4(C(=O)O)CC4)cc3)cc2)c1COC(C)c1ccccc1 (centres unmarked) [Compound 1-47, 1-{4′-[3-Methyl-4-(1-phenyl-ethoxymethyl)-isoxazol-5-yl]-biphenyl-4-yl}-cyclopropanecarboxylic acid]	1000 to 50000 nM
Cc1noc(-c2ccc(-c3ccc(C4(C(=O)O)CC4)cc3)cc2)c1CSCc1ccccc1 [Compound 1-50, 1-[4′-(4-Benzylsulfanylmethyl-3-methyl-isoxazol-5-yl)-biphenyl-4-yl]-cyclopropanecarboxylic acid]	1000 to 50000 nM
Cc1noc(-c2ccc(-c3ccc(C4(C(=O)O)CC4)cc3)cc2)c1C[S+]([O-])Cc1ccccc1 (centres unmarked) [Compound 1-52, 1-[4′-(3-Methyl-4-phenylmethanesulfinylmethyl-isoxazol-5-yl)-biphenyl-4-yl]-cyclopropanecarboxylic acid]	> 50000 nM
Cc1noc(-c2ccc(-c3ccc(C4(C(=O)O)CC4)cc3)cc2)c1CS(=O)(=O)Cc1ccccc1 [Compound 1-53, 1-[4′-(3-Methyl-4-phenylmethanesulfonylmethyl-isoxazol-5-yl)-biphenyl-4-yl]-cyclopropanecarboxylic acid]	1000 to 50000 nM
Cc1noc(-c2ccc(-c3ccc(C4(C(=O)O)CC4)cc3)cc2)c1C[S+]([O-])CCc1ccccc1 (centres unmarked) [Compound 1-54, 1-{4′-[3-Methyl-4-(2-phenyl-ethanesulfinylmethyl)-isoxazol-5-yl]-biphenyl-4-yl}-cyclopropanecarboxylic acid]	< 300 nM
Cc1noc(-c2ccc(-c3ccc(C4(C(=O)O)CC4)cc3)cc2)c1CS(=O)(=O)CCc1ccccc1 [Compound 1-55, 1-{4′-[3-Methyl-4-(2-phenyl-ethanesulfonylmethyl)-isoxazol-5-yl]-biphenyl-4-yl}-cyclopropanecarboxylic acid]	< 300 nM
Cc1noc(-c2ccc(-c3ccc(C4(C(=O)O)CC4)cc3)cc2)c1CNC(=O)OCc1ccccc1 [Compound 1-57, 1-{4′-[4-(Benzyloxycarbonylamino-methyl)-3-methyl-isoxazol-5-yl]-biphenyl-4-yl}-cyclopropanecarboxylic acid]	< 300 nM
Cc1noc(-c2ccc(-c3ccc(C4(C(=O)O)CC4)cc3)cc2)c1CNC(=O)Cc1ccccc1 [Compound 1-58, 1-{4′-[3-Methyl-4-(phenylacetylamino-methyl)-isoxazol-5-yl]-biphenyl-4-yl}-cyclopropanecarboxylic acid]	< 300 nM
Cc1noc(-c2ccc(-c3ccc(C4(C(=O)O)CC4)cc3)cc2)c1CNC(=O)NCc1ccccc1 [Compound 1-59, 1-{4′-[4-(3-Benzyl-ureidomethyl)-3-methyl-isoxazol-5-yl]-biphenyl-4-yl}-cyclopropanecarboxylic acid]	1000 to 50000 nM
Cc1noc(-c2ccc(-c3ccc(C4(C(=O)O)CC4)cc3)cc2)c1CNC(=O)CCc1ccccc1 [Compound 1-60, 1-(4′-{3-Methyl-4-[(3-phenyl-propionylamino)-methyl]-isoxazol-5-yl}-biphenyl-4-yl)-cyclopropanecarboxylic acid]	1000 to 50000 nM
Cc1noc(-c2ccc(-c3ccc(C4(C(=O)O)CC4)cc3)cc2)c1CNS(=O)(=O)Cc1ccccc1Cl [Compound 1-61, 1-(4′-{4-[(2-Chloro-phenylmethanesulfonylamino)-methyl]-3-methyl-isoxazol-5-yl}-biphenyl-4-yl)-cyclopropanecarboxylic acid]	1000 to 50000 nM
Cc1noc(-c2ccc(-c3ccccc3C3(C(=O)O)CC3)cc2)c1/C=C\CCc1ccccc1 [Compound 1-62, 1-{4′-[3-Methyl-4-((Z)-4-phenyl-but-1-enyl)-isoxazol-5-yl]-biphenyl-2-yl}-cyclopropanecarboxylic acid]	1000 to 50000 nM
Cc1noc(-c2ccc(-c3ccccc3C3(C(=O)O)CC3)cc2)c1/C=C/CCc1ccccc1 [Compound 1-63, 1-{4′-[3-Methyl-4-((E)-4-phenyl-but-1-enyl)-isoxazol-5-yl]-biphenyl-2-yl}-cyclopropanecarboxylic acid]	1000 to 50000 nM
Cc1noc(-c2ccc(-c3ccc(C4(C(=O)O)CC4)cc3)cc2)c1CNC(=O)C1(c2ccccc2)CC1 [Compound 1-64, 1-[4′-(3-Methyl-4-{[(1-phenyl-cyclopropanecarbonyl)-amino]-methyl}-isoxazol-5-yl)-biphenyl-4-yl]-cyclopropanecarboxylic acid]	< 300 nM
Cc1noc(-c2ccc(-c3ccc(C4(C(=O)O)CC4)cc3)cc2)c1CC(=O)N[C@@H]1CCc2ccccc21 [Compound 1-65, 1-{4′-[4-(Indan-1-ylcarbamoylmethyl)-3-methyl-isoxazol-5-yl]-biphenyl-4-yl}-cyclopropanecarboxylic acid]	> 50000 nM
Cc1noc(-c2ccc(-c3ccc(C4(C(=O)O)CC4)cc3)cc2)c1CC(=O)N1Cc2ccccc2C1 [Compound 1-66, 1-(4′-{4-[2-(1,3-Dihydro-isoindol-2-yl)-2-oxo-ethyl]-3-methyl-isoxazol-5-yl}-biphenyl-4-yl)-cyclopropanecarboxylic acid]	> 50000 nM
Cc1noc(-c2ccc(-c3ccc(C4(C(=O)O)CC4)cc3)cc2)c1CN(C)CCc1ccccc1 [Compound 1-67, 1-(4′-{3-Methyl-4-[(methyl-phenethyl-amino)-methyl]-isoxazol-5-yl}-biphenyl-4-yl)-cyclopropanecarboxylic acid]	< 300 nM
